Residues, ends and D or L forms follow the SMILES beside them. *: point of attachment. Cbz = O=C(OCc1ccccc1)*; CH2F = FC*
How the values were obtained:
Format in all cases: cell-based, human
[1] = test system: MRC-5 cells; conditions: for cell death of MRC-5 cells: within the first 24 h of exposure, anti-Fas and TNF-α only in the presence of CHX, phase microscope
Method: (§1) Tumor necrosis factor receptor 1 (TNF-R1)-mediated apoptosis was induced by exposure of HeLa and MRC-5 cells to tumor necrosis factor-α (TNF-α) (Sigma, 10-60 ng/mL)+CHX (10-30 μg/mL). Fas-mediated apoptosis was induced by exposure of cells to an anti-Fas antibody (Coulter, 7C11 antibody at 0.2-4 μg/mL)+CHX (10-30 μg/mL). The degree of cell death was determined by the visual scoring of surviving cells, in representative fields, under a phase microscope.
The time-course of apoptosis was also analyzed by examining the expression of phosphatidylserine on the cell surface, as detected with FITC-labeled Annexin V, and by a dye-exclusion test using propidium iodide. These two tests were performed with an ApoAlert Annexin V Apoptosis kit (Clontech) in accordance with the manufacturer's recommendations, on a flow cytometer (FACScan, Becton-Dickinson).
These experiments were performed on MRC-5, a normal human fibroblast cell line which can be productively infected by HCMV in cell culture. The present inventors first examined whether infection of cells with HCMV alters the cell's sensitivity to Fas- or TNF-R1-mediated apoptosis.

[2] = test system: HCMV-infected MRC-5 cells; assay: Apoptosis resistance of HCMV-infected MRC-5 cells in presence of viral DNA polymerase inhibitors; conditions: concentration sufficient to inhibit viral replication; challenge two days later with anti-Fas antibody+CHX or TNF-α+CHX
Excerpt: To discriminate between these two mechanisms, MRC-5 cells were infected with HCMV in the presence (or absence) of inhibitors of viral DNA polymerase, such as phosphonacetic acid or gancyclovir (Huang, 1975; Crumpacker, 1996) which prevent the expression of the late genes of HCMV in the host cell (Mocarski, 1996).
MRC-5 cells uninfected (FIG. 3A) or infected with HCMV (FIG. 3B) were either untreated, or treated with either phosphonacetic acid or gancyclovir at a concentration sufficient to inhibit viral replication (Huang, 1975; Crumpacker, 1996). Two days later these cells were challenged with either anti-Fas antibody+CHX or TNF-α+CHX (FIGS. 3A and 3B). Although nearly all non-infected MRC-5 cells underwent apoptosis, irrespective of the presence or absence of phosphonacetic acid or gancyclovir, a major fraction of cells exposed to HCMV survived the challenge with the apoptotic stimuli in the absence of the viral DNA polymerase inhibitors. Further, a somewhat smaller but still large fraction of cells survived in the presence of the inhibitors. Thus, the insensitivity of HCMV-infected cells to apoptosis was not abolished by these drugs.

[3] = test system: HeLa cells; assay: Transient transfection apoptosis assay in HeLa cells (anti-Fas antibody+CHX or TNF-α+CHX); conditions: for protection of HeLa cells at very low plasmid concentration: 0.1% to 1% of the total DNA transfected, mixed with control vector, anti-Fas antibody+CHX; for β-gal levels after anti-Fas antibody+CHX treatment: plasmids diluted several hundred fold, β-gal marker plasmid
Method: as §1, with “microscope. A similar degree of cell death occurred in fibroblasts when examined 5 to 28 h after the start of exposure, or a similar degree of cell death occurred in HeLa cells when examined 9-28 h after the start of exposure. Further, a similar degree of cell death for a given reagent was produced when any concentration within the range indicated above was used.” for “microscope.”
The degree of cell death in cells transfected with an indicator plasmid expressing E. coli β-galactosidase was determined by either a β-galactosidase ELISA (Boehringer Mannheim), in accordance with the manufacturer's recommendations, or by visually scoring, under a microscope, positive blue cells, expressing β-galactosidase, after staining them with X-gal.
HeLa cells were transiently co-transfected with an expression plasmid vector, pME18S, carrying a polynucleotide sequence encoding IE1 or IE2 (FIG. 5, “IE1” and “IE2,” respectively), and a vector carrying the β-galactosidase gene (pCMVβ, Clontech). As a positive control, HeLa cells were transiently co-transfected with pCMVβ and a vector carrying a polynucleotide sequence encoding an anti-apoptotic polypeptide, such as the adenovirus E1B 19K or baculovirus p35.
Expression of IE1 (approx. 72 kDa) and IE2 (approx. 86 kDa) in the transfected HeLa cells was confirmed by Western blot analysis, by immunofluorescence visually examined under a fluorescence microscope, and by transactivation activity which led to an elevation of the vector-CMV-promoter-driven β-galactosidase expression which was increased 2- to 5-fold, as measured by a β-galactosidase ELISA (data not shown). Apoptosis was induced by incubating the transfected cells for 24 h with either TNF-α+CHX, or anti-Fas antibody+CHX. The surviving cells were stained with X-gal, a chromogenic substrate of β-galactosidase, and then the blue-stained cells were scored (FIG. 5).
To identify HCMV genes that can suppress apoptosis induced by Fas-ligation, the present inventors established a transient transfection assay in HeLa cells. The HeLa cells can be transfected at much higher efficiency than MRC-5 cells and are similar in their sensitivity towards anti-Fas antibody and TNF-α treatment. Enhanced survival of HeLa cells following anti-Fas antibody+CHX treatment was detected by elevated β-galactosidase (β-gal) levels produced by a transfected β-gal marker plasmid.
The deletion mutants were transiently expressed in HeLa cells, cultured in DMEM supplemented with 10% fetal bovine serum, and assayed for their ability to block Fas- or TNF-R1-mediated apoptosis. Transfections and apoptosis assays were performed as previously described (Goldmacher et al., 1999). Briefly, cells were transiently transfected with the expression vectors (purified with a Qiagen plasmid purification kit) using SuperFect transfection reagent (Qiagen) in accordance with the manufacturer's protocol. After 24 hours, cells were exposed to anti-Fas 7C11 antibody (Coulter, 0.5 μg/ml)+cyclohexamide (Sigma, 10 μg/ml) for 24 hours.
A genomic DNA library was cloned into pZeoSV2(+) plasmid (Invitrogen). Ten cosmids, pCM1007, pCM1015, pCM1017, pCM1029, pCM1035, pCM1039, pCM1040, pCM1052, pCM1058, and pCM1072, covering the AD169 genome (Fleckenstein et al., 1982, which is incorporated herein by reference), and pON2601 Toledo cosmid (Cha et al., 1996, which is incorporated herein by reference) containing unique HCMV sequences, were mixed in equal amounts and partially digested with Sau3AI (New England Biolabs, Beverly, Mass.). […]

[4] = test system: Fas-mediated apoptotic signaling in HeLa cells; assay: Western blot of Fas-mediated apoptotic signaling events in HeLa clones
Method: Cells were trypsinized, washed in Tris buffered saline, resuspended in a lysis buffer (150 mM NaCl, 5 mM EDTA, 50 mM Tris.HCl pH 8.0, 1% Triton X-100), freshly supplemented with phenylmethylsulfonyl fluoride (0.1 mM), leupeptin ([…]) and pepstatin (1 μg/mL), incubated on ice for 30 minutes, and centrifuged at 16,000 g for 15 minutes, at 4° C. Cytochrome c and procaspase 9 were detected in S-1 00 fractions of cells (Li et al., 1997, which is incorporated herein by reference).
The intracellular polypeptides were detected by Western blot analysis. Samples containing protein were electrophoretically resolved under reduced conditions, on Laemmli SDS-PAGE (Novex), after equal amounts of protein were loaded per well of the gel, detected using a standard Western blot protocol and a luminol-based ECL Western Blotting system (Amersham). The following antibodies were used in the Western blot analysis: anti-human Bid C-20 (Santa Cruz Biotechnology), 5F7 anti-human caspase 8 (Upstate Biotechnology), C210 anti-PARP (Biomol), 7H8.2C12 anti-cytochrome c (Pharmigen), B40 anti-human caspase 9 (Pharmigen), FITC-anti-mouse IgG (Sigma), HRP-anti-mouse IgG-F, (Pierce), HRP-anti-mouse IgG2b (Boehringer Mannheim), HRP-anti-rabbit IgG, and HRP-anti-mouse Ig (Amersham).
The impact of pUL37S on biochemical events involved in Fas-mediated apoptosis was examined by comparing control HeLa/pcDNA3 cells, which are sensitive to anti-Fas antibody plus CHX, to HeLa clones expressing either pUL37S or cellular Bcl-xL, both of which are resistant to Fas-mediated apoptosis. Ligation of Fas triggers the recruitment and activation of caspase 8 through the adapter molecule FADD (Ashkenazi et al., 1998). This process was not impaired by pUL37S since pro-caspase 8 was processed in pUL37S-expressing cells similar to its processing in either Bcl-xL-expressing cells, or control cells within 4 h of the exposure to anti-Fas antibody plus CHX, but not CHX alone (FIG. 16A). Fas-signaling is connected to mitochondrial events in apoptosis through Bid, a pro-apoptotic BH3 polypeptide that is proteolyzed by caspase 8 and subsequently translocates to mitochondria where it triggers cytochrome c release (Li et al., 1998; Lu et al., 1998).

In the case of C[C@@H]1C[C@@H]([C@H](O)CC2CC(=O)NC(=O)C2)C(=O)[C@@H](C)C1 [CHX, Cycloheximide], the “cell death of MRC-5 cells” value [1] is reported as “did not kill cells”.

COC(=O)C[C@H](NC(=O)[C@H](C)NC(=O)[C@@H](NC(=O)OCc1ccccc1)C(C)C)C(=O)CF [Z-VADfmk] (Cbz-Val-Ala-Asp(OMe)-CH2F) was tested, and the “effect on Fas- and TNF-R1-mediated MRC-5 cell death” value ([1]; caspase inhibitor added with anti-Fas antibody or TNF-α +CHX) was “prevented”.

In the case of Nc1nc(O)c2ncn(COC(CO)CO)c2n1 [gancyclovir], the “effect on insensitivity of HCMV-infected cells to apoptosis” value [2] is reported as “not abolished”.

With O=C(O)CP(=O)(O)O [phosphonacetic acid] the “effect on insensitivity of HCMV-infected cells to apoptosis” value [2] was “not abolished”.

For “Bcl-2: human anti-apoptotic gene product”, the “protection of HeLa cells at very low plasmid concentration” value (“protection of HeLa cells” below) [3] was “detectable protection”.

In the case of TNF-α, the “cell death of MRC-5 cells” value [1] is reported as “died”.

In the case of “Bcl-xL: human cellular anti-apoptotic polypeptide”, the “protection of HeLa cells” value [3] is reported as “detectable protection”, the “β-gal levels after anti-Fas antibody+CHX treatment” value [3] is reported as “enhanced β-gal levels” and the “cleavage of PARP” value ([4]; 4 h anti-Fas antibody plus CHX) is reported as “inhibited”. The cytochrome c release ([4]; 4 h anti-Fas antibody plus CHX) was “not observed”, the “processing of procaspase 9” value ([4]; 4 h anti-Fas antibody plus CHX) was “inhibited” and the “processing of pro-caspase 8” value ([4]; within 4 h of anti-Fas antibody plus CHX) was “processed”.

B1: p35: baculovirus anti-apoptotic polypeptide, positive control (protein, UniProt P08160 1-299, looked up)
Early 35 kDa protein: MCVIFPVEIDVSQTIIRDCQVDKQTRELVYINKIMNTQLTKPVLMMFNISGPIRSVTRKNNNLRDRIKSKVDEQFDQLERDYSDQMDGFHDSIKYFKDEHYSVSCQNGSVLKSKFAKILKSHDYTDKKSIEAYEKYCLPKLVDERNDYYVAVCVLKPGFENGSNQVLSFEYNPIGNKVIVPFAHEINDTGLYEYDVVAYVDSVQFDGEQFEEFVQSLILPSSFKNSEKVLYYNEASKNKSMIYKALEFTTESSWGKSEKYNWKIFCNGFIYDKKSKVLYVKLHNVTSALNKNVILNTIK
In the case of B1, the “protection of HeLa cells” value [3] is reported as “detectable protection”, the “survival of transfected cells after apoptosis induction” value ([3]; HeLa cells, 24 h with either TNF-α+CHX or anti-Fas antibody+CHX, X-gal stained cells scored) is reported as “survived” and the “β-gal levels after anti-Fas antibody+CHX treatment” value [3] is reported as “enhanced β-gal levels”.
